{"source": "patent US7256028B2", "about": "“Methods for screening compounds that modulate lipid metabolism” (Xenon Genetics Inc., priority 2000, dated 2007)", "key": {"fatty acid desaturases": {"tested_on": "fatty acid desaturases", "details": "Kawashima et al., 1996; cited from earlier work"}, "rat delta-5-desaturase [1]": {"biological_target": "T1, rat delta-5-desaturase (Rattus norvegicus, UniProt Q920R3, Q29H/R30G)", "T1 construct": "A rD5D cDNA fragment spanning nucleotides +1 to +1344 was cloned by RT-PCR using total RNA extracted from rat liver tissue; expressed in transfected cells; host or cells: Saccharomyces cerevisiae INVSc1 transformed with pYr5014.1 (pYES2 backbone), galactose-induced; whole cells or spheroplasts", "T1 sequence (Q920R3 1-447 Q29H/R30G)": "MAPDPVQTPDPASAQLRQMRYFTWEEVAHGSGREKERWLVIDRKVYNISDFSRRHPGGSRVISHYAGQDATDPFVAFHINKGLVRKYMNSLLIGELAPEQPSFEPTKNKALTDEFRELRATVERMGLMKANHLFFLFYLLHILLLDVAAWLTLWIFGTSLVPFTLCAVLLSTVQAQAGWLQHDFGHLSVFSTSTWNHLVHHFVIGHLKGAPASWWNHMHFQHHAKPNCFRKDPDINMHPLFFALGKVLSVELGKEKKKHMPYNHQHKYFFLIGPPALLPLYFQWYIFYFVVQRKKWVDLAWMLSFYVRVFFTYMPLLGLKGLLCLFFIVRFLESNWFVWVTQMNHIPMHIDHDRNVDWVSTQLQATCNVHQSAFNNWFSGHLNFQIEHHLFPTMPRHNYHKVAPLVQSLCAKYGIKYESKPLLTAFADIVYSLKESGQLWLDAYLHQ", "experiment": "Inhibition of rat delta-5-desaturase in spheroplasts of Saccharomyces cerevisiae transformed with pYr5014.1", "type": "cell-based", "description": "(§1) After 16 h incubation, spheroplasts were prepared as previously described in Example 8."}, "human delta-5-desaturase [2]": {"biological_target": "T2, human delta-5-desaturase (Homo sapiens, UniProt O60427)", "T2 construct": "expressed in transfected cells; host or cells: Saccharomyces cerevisiae INVSc1 transformed with pTh5009.1 (pYES2/CT backbone), galactose-induced; whole cells or spheroplasts", "T2 sequence (O60427 with tags, fused parts or gaps)": "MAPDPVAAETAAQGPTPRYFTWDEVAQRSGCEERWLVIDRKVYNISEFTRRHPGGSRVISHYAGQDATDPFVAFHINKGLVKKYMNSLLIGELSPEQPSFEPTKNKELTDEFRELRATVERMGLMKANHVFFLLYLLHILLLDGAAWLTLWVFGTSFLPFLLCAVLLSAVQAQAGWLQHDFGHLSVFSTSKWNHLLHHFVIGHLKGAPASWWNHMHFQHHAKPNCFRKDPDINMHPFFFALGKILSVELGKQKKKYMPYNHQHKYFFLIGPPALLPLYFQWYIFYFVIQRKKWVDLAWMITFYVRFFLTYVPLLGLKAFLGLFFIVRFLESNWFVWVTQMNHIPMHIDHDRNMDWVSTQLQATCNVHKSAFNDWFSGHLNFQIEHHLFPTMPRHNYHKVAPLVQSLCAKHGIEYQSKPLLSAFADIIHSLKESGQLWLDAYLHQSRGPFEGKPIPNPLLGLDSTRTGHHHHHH", "experiment": "Inhibition of human delta-5-desaturase in spheroplasts of Saccharomyces cerevisiae transformed with pTh5009.1", "type": "cell-based", "description": "as §1"}, "[3]": {"tested_on": "spheroplasts of Saccharomyces cerevisiae", "experiment": "Cell density (O.D.600) and substrate radioactivity recovered in spheroplasts incubated with inhibitor", "excerpt": "Total lipids were extracted and analyzed as described in Example 6."}, "rat delta-5-desaturase [4]": {"biological_target": "T1, rat delta-5-desaturase", "experiment": "Inhibition of rat delta-5-desaturase in whole cells of Saccharomyces cerevisiae transformed with pYr5014.1", "type": "cell-based", "method": "(§2) Incubation of Whole Yeast: Saccharomyces cerevisiae transformed with either pYr5014.1 or pTh5009.1 were incubated in a 125 ml Erlenmeyer flask containing 9 ml of SC-U medium with 1% tergitol (O.D.600 0.4, approximately 3.2×10^6 cells/ml) and 200 μl of n-propyl gallate in ethanol (final concentration in the culture ranged between 1.7-14.0 mM). After I h incubation in an orbital incubator at 270 rpm and 30° C., 1 μCi of potassium salt of [1-^14C]-dihomogammalinolenic acid (dissolved in SC-U medium and 1% tergitol) was added to the cell suspension to a final concentration of 2 μM. After 5 h incubation with the inhibitor, cells reached the log phase and the transgene expression was induced with the addition of 1 ml of galactose to a final concentration of 2%. Yeast were further incubated for 19 h (O.D.600 range: 5-10) until they were harvested by centrifugation at 5000×g for 10 minutes at 4° C.\n(§3) Calculations: The delta-5-desaturase activity was determined by measuring the conversion of radiolabelled dihomogammalinolenic acid to arachidonic acid (20:3n-6 to 20:4n-6). The percent inhibition was calculated as described elsewhere (Kawashima et al., 1996, Biosci. Biotech. Biochem., 60:1672-1676): % Inhibition=100(activity without the inhibitor−activity with the inhibitor)/activity without the inhibitor"}, "human delta-5-desaturase [5]": {"biological_target": "T2, human delta-5-desaturase", "experiment": "Inhibition of human delta-5-desaturase in whole cells of Saccharomyces cerevisiae transformed with pTh5009.1", "type": "cell-based", "method": "as §2, §3"}, "delta-5-desaturase": {"biological_target": "T3, delta-5-desaturase (Rattus norvegicus, UniProt Q920R3)", "T3 construct": "from tissue; host or cells: liver microsomes of Wistar rats", "T3 sequence (Q920R3 whole entry)": "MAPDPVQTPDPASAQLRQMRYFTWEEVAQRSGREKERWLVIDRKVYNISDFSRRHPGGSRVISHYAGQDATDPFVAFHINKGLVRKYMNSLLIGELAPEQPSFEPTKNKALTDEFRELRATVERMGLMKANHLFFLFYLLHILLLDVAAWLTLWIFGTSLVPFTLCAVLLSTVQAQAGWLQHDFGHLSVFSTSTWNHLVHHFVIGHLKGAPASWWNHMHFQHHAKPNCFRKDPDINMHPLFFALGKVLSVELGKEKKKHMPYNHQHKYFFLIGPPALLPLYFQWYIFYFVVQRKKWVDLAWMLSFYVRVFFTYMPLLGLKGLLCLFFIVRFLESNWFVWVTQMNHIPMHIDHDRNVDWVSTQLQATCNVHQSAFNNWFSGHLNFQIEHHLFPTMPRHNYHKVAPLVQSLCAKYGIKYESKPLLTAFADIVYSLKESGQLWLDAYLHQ", "experiment": "Inhibition of delta-5-desaturase activity in rat liver microsomes", "type": "biochemical", "description": "Preparation rat liver microsomes: Wistar rats under light halothane (15% in mineral oil) anesthesia were sacrificed by exsanguination during periods of high enzyme activity. Livers are immediately rinsed with cold 0.9% NaCl solution, weighed and minced with scissors. All procedures are performed at 4° C. unless specified otherwise. Livers are homogenized in a solution (1:3 w/v) containing 0.25 M sucrose, 62 mM. potassium phosphate buffer (pH 7.0), 0.15 M KCl, 1.5 mM N-acetylcysteine, 5 mM MgCl2, and 0.1 mM EDTA using 4 strokes of a Potter-Elvehjem tissue homogenizer. The homogenate is centrifuged at 10,400×g for 20 min to eliminate mitochondria and cellular debris. The supernatant is filtered through a 3-layer cheesecloth and centrifuged at 105,000×g for 60 min. The microsomal pellet is gently resuspended in the same homogenization solution with a small glass/teflon homogenizer and stored at −70° C. The absence of mitochondrial contamination is enzymatically assessed. The protein concentration is measured using bovine serum albumin as the standard.\nIncubation of rat liver microsomes with delta-5-desaturase modulators: Reactions are started by adding 2 mg of microsomal protein to pre-incubated tubes containing 0.20 μCi of the substrate fatty acid (DLL) at a final concentration of 33.3 μM in 1.5 ml of homogenization solution, containing NaF (42 mM), niacinamide (0.33 mM), ATP (1.57 mM), NADH (1.0 mM), coenzyme A (0.09 mM) and a range of concentrations of the enzyme modulators. N-propyl gallate was added to the incubation medium to a final concentration of 0.02-0.32 mM. The tubes are vortexed vigorously and after 15 min incubation in a shaking water bath (37° C.), the reactions are stopped and fatty acids are analyzed as described in Example 6. Alternatively, fatty acid methyl esters are analyzed by capillary column gas chromatography (GC)."}, "[6]": {"tested_on": "whole cells of Saccharomyces cerevisiae", "experiment": "Cell density (O.D.600) and substrate radioactivity recovered in whole yeast incubated with inhibitor", "type": "cell-based", "method": "as §2"}, "[7]": {"tested_on": "D6D Promoter (human delta-6-desaturase control region, pRh4002.1)", "experiment": "CAT reporter assay, basal activity of D6D promoter in ZR-75-1 cell line", "type": "cell-based", "details": "ZR-75-1 cells transfected with pRh4002.1 (D6D) plus agent; CAT activity normalized to pCat3-Control = 100; pRh4002.1 alone 75.91"}, "[8]": {"details": "n-propyl gallate 0.25 mM, 20:3n-6 to 20:4n-6"}}, "data": [{"compound": "CCCOC(=O)c1cc(O)c(O)c(O)c1", "note": "[n-propyl gallate, 3,4,5-Trihydoxybenzoic acid propyl ester]", "values": [{"measurement": "type of inhibition of fatty acid desaturases", "setting": "fatty acid desaturases", "result": "noncompetitive inhibitor"}, {"measurement": "% inhibition", "setting": "rat delta-5-desaturase [1]; [8]", "result": 4.3, "unit": "%"}, {"measurement": "% inhibition", "setting": "rat delta-5-desaturase [1]; n-propyl gallate 1.00 mM", "result": 7.0, "unit": "%"}, {"measurement": "% inhibition", "setting": "rat delta-5-desaturase [1]; n-propyl gallate 2.00 mM", "result": 20.5, "unit": "%"}, {"measurement": "% inhibition", "setting": "rat delta-5-desaturase [1]; n-propyl gallate 4.00 mM", "result": 50.4, "unit": "%"}, {"measurement": "% inhibition", "setting": "rat delta-5-desaturase [1]; n-propyl gallate 8.00 mM", "result": 81.9, "unit": "%"}, {"measurement": "% inhibition", "setting": "human delta-5-desaturase [2]; [8]", "result": 14.6, "unit": "%"}, {"measurement": "% inhibition", "setting": "human delta-5-desaturase [2]; n-propyl gallate 0.50 mM", "result": 17.6, "unit": "%"}, {"measurement": "% inhibition", "setting": "human delta-5-desaturase [2]; n-propyl gallate 1.00 mM", "result": 24.0, "unit": "%"}, {"measurement": "% inhibition", "setting": "human delta-5-desaturase [2]; n-propyl gallate 2.00 mM", "result": 41.0, "unit": "%"}, {"measurement": "% inhibition", "setting": "human delta-5-desaturase [2]; n-propyl gallate 4.00 mM", "result": 100.0, "unit": "%"}, {"measurement": "% inhibition", "setting": "human delta-5-desaturase [2]; n-propyl gallate 8.00 mM", "result": 100.0, "unit": "%"}, {"measurement": "O.D.600", "setting": "[3]; n-propyl gallate 0.25 mM, pTh5009.1, without inhibitor 2.6", "result": 2.4}, {"measurement": "O.D.600", "setting": "[3]; n-propyl gallate 0.25 mM, pYr5014.1, without inhibitor 3.2", "result": 2.8}, {"measurement": "O.D.600", "setting": "[3]; n-propyl gallate 0.50 mM, pTh5009.1", "result": 2.5}, {"measurement": "O.D.600", "setting": "[3]; n-propyl gallate 1.00 mM, pTh5009.1", "result": 2.5}, {"measurement": "O.D.600", "setting": "[3]; n-propyl gallate 1.00 mM, pYr5014.1", "result": 2.9}, {"measurement": "O.D.600", "setting": "[3]; n-propyl gallate 2.00 mM, pTh5009.1", "result": 2.2}, {"measurement": "O.D.600", "setting": "[3]; n-propyl gallate 2.00 mM, pYr5014.1", "result": 2.7}, {"measurement": "O.D.600", "setting": "[3]; n-propyl gallate 4.00 mM, pTh5009.1", "result": 2.4}, {"measurement": "O.D.600", "setting": "[3]; n-propyl gallate 4.00 mM, pYr5014.1", "result": 2.9}, {"measurement": "O.D.600", "setting": "[3]; n-propyl gallate 8.00 mM, pTh5009.1", "result": 1.2}, {"measurement": "O.D.600", "setting": "[3]; n-propyl gallate 8.00 mM, pYr5014.1", "result": 2.8}, {"measurement": "cytotoxicity (consistent O.D.600 readings)", "setting": "[3]; n-propyl gallate between 0.7-4.0 mM", "result": "not cytotoxic"}, {"measurement": "% inhibition", "setting": "rat delta-5-desaturase [4]; n-propyl gallate 7.0 mM, gene induced after addition of inhibitor", "result": 38.9, "unit": "%"}, {"measurement": "% inhibition", "setting": "rat delta-5-desaturase [4]; n-propyl gallate 14.0 mM", "result": 68.5, "unit": "%"}, {"measurement": "% inhibition", "setting": "human delta-5-desaturase [5]; n-propyl gallate 1.7 mM, gene induced after addition of inhibitor", "result": 25.0, "unit": "%"}, {"measurement": "% inhibition", "setting": "human delta-5-desaturase [5]; n-propyl gallate 3.5 mM", "result": 63.3, "unit": "%"}, {"measurement": "% inhibition", "setting": "human delta-5-desaturase [5]; n-propyl gallate 7.0 mM", "result": 100.0, "unit": "%"}, {"measurement": "concentration of the inhibitor at which a plateau of inhibition was reached", "setting": "delta-5-desaturase", "result": "0.08 to 0.32", "unit": "mM"}, {"measurement": "% of inhibition", "setting": "delta-5-desaturase; n-propyl gallate 0.02 mM, activity without inhibitor 394 pmol/mg microsomal protein/min", "result": 62.9, "unit": "%"}, {"measurement": "% of inhibition", "setting": "delta-5-desaturase; n-propyl gallate 0.04 mM", "result": 74.9, "unit": "%"}, {"measurement": "% of inhibition", "setting": "delta-5-desaturase; n-propyl gallate 0.08 mM", "result": 86.4, "unit": "%"}, {"measurement": "% of inhibition", "setting": "delta-5-desaturase; n-propyl gallate 0.16 mM", "result": 88.7, "unit": "%"}, {"measurement": "% of inhibition", "setting": "delta-5-desaturase; n-propyl gallate 0.32 mM", "result": 100.0, "unit": "%"}, {"measurement": "O.D.600", "setting": "[6]; n-propyl gallate 1.7 mM, pTh5009.1, without inhibitor 10.9", "result": 9.0}, {"measurement": "O.D.600", "setting": "[6]; n-propyl gallate 3.5 mM, pTh5009.1", "result": 9.9}, {"measurement": "O.D.600", "setting": "[6]; n-propyl gallate 7.0 mM, pTh5009.1", "result": 10.5}, {"measurement": "O.D.600", "setting": "[6]; n-propyl gallate 7.0 mM, pYr5014.1, without inhibitor 6.7", "result": 6.5}, {"measurement": "O.D.600", "setting": "[6]; n-propyl gallate 14.0 mM, pYr5014.1", "result": 5.4}]}, {"compound": "CC/C=C\\C/C=C\\C/C=C\\C/C=C\\C/C=C\\C/C=C\\CCC(=O)O", "note": "[DHA, docosahexaenoic acid]", "values": [{"measurement": "Percent Activity Compared to Controls", "setting": "[7]", "result": "19.82 ± 1.41", "unit": "%"}]}]}
